Measured values taken from patent publication US12448372B2, “Class of triaromatic compounds targeting bifunctional phosphorylation site of STAT3 and applications thereof” (SHANGHAI YUYAO BIOTECH LTD., priority 2019, dated 2025).
Entries after “also recorded” stand apart in the source; their conditions may differ. Like-named read-outs stand apart in the source and are kept apart here.

Tests used:
[1] = Acute toxicological experiments, survival of normal mice; conditions: dose of 80 mg/kg, FIG. 5E
PLC/PRF-5 = experiment: Cell proliferation by MTS method, PLC/PRF-5; assay type: cell-based; conditions: Homo sapiens, Liver Cancer
Text: (§1) (2) Detection of Cell Proliferation by MTS Method
(§2) The MTS assay is a method for indirectly determining the number of living cells via colourimetric method. MTS is a newly synthesised tetrazole compound that reflects cell viability, which can be reduced by succinate dehydrogenase in the mitochondria of living cells to an orange-coloured formazan with an absorbance of the reduced product measured at 490 nm being in proportion to the number of living cells, thus reflecting the cell viability. This assay can be used to evaluate the effect of the compound on the proliferation of pancreatic cancer cells, thereby determining the inhibitory effect of the compound on the proliferation of pancreatic cancer cells and to calculate the IC^50. Each cells were inoculated uniformly into a 96-well plate at a density of 1-20×10^3 cells/well, 100 μL per well, and placed in a constant temperature incubator until the cells adhered to the wall. […] Under light-proof conditions, MTS was added and well mixed, the mixture was placed in a constant temperature incubator at 37° C., and the light absorption value were measured using an enzyme marker at 490 nm and the experiment was repeated for three times, IC50 was calculated with GraphPad5 Prism software.

STAT3 SH2 domain = STAT3 SH2 domain (Homo sapiens, UniProt P40763); experiment: Microscale thermophoresis binding to STAT3 SH2 domain; conditions: MST, FIG. 5A; read-out: affinity for the STAT3 SH2 domain
STAT3 SH2 domain, sequence (P40763 580-670 limits assumed): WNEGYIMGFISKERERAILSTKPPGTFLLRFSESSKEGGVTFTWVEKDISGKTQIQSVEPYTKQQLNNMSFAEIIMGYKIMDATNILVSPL
Text: The microscale thermophoresis (MST) technique is a simple, rapid, and accurate method for quantifying biomolecular interactions. It can measure the movement of molecules in a microscopic temperature gradient field, as well as detect changes of molecular hydration shell, charge and size. When the Nanotemper microscale thermophoresis instrument locally heated by a infrared laser, molecules will move in a directional manner, then the molecular distribution ratio in the temperature gradient field are analyzed by a fluorescence to detect whether a small molecule compound binds to a target protein. The experimental operation is as follows: firstly, compounds to be tested are diluted in a gradient using MST test buffer, total 16 concentrations being configured; subsequently, the purified STAT3 recombinant protein is labeled using the HIS tag labeling kit, and the final concentration of the labeled protein is 100-200 nM; the labeled STAT3 proteins are well mixed with the diluted compounds and incubated and protected from light for 30 minutes; finally the samples were loaded by capillary tube and detected on the instrument. The binding constants (K^D) of small molecules to STAT3 protein were analyzed by Mo. analysis software.
(1) Microscale Thermophoresis Experiment
The method is as described in Example 40.

BGC823 = experiment: Cell proliferation by MTS method, BGC823; assay type: cell-based; conditions: Homo sapiens, BGC-823, gastric Cancer
Text: as §1, §2

[2] = system: STAT3-Tyr705 and Ser727 in pancreatic cancer cells; experiment: Western blot of STAT3 phosphorylation in pancreatic cancer cells; assay type: cell-based; conditions: 12-24 h, FIG. 1A
Text: Finally, the expression levels of protein were detected by Odyssey scanner.

SK-hep1 = experiment: Cell proliferation by MTS method, SK-hep1; assay type: cell-based; conditions: Homo sapiens, Liver Cancer
Text: as §1, §2

PANC-1 = experiment: Cell proliferation by MTS method, PANC-1; assay type: cell-based; conditions: Homo sapiens, Pancreatic Cancer
Text: as §1, §2

HCT-116 = experiment: Cell proliferation by MTS method, HCT-116; assay type: cell-based; conditions: Homo sapiens, Colon Cancer
Text: as §1, §2

H1299 = experiment: Cell proliferation by MTS method, H1299; assay type: cell-based; conditions: Homo sapiens, NCI-H1299, Lung Cancer
Text: as §1, §2

MKN45 = experiment: Cell proliferation by MTS method, MKN45; assay type: cell-based; conditions: Homo sapiens, MKN-45
Outline: (§3)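 Cells seeded at 1-20×10^3 cells/well and allowed to adhere, then exposed to graded compound concentrations for 24-96 h. MTS added and incubated at 37° C in the dark, absorbance read at 490 nm. Three repeats; IC50 from concentration-response.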

SW1990 = experiment: Cell proliferation by MTS method, SW1990; assay type: cell-based; conditions: Homo sapiens, Pancreatic Cancer
Text: as §1, §2

A549 = experiment: Cell proliferation by MTS method, A549; assay type: cell-based; conditions: Homo sapiens, Lung Cancer
Text: as §1, §2

H1975 = experiment: Cell proliferation by MTS method, H1975; assay type: cell-based; conditions: Homo sapiens, NCI-H1975, Lung Cancer
Text: as §1, §2

[3] = system: a variety of tumour cells; experiment: Cell proliferation by MTS method, summary over a variety of tumour cells; assay type: cell-based; conditions: summary over different types of cancer cells; read-out: half effective proliferation inhibition concentration (IC50) against a variety of tumour cells
Text: as §1, §2

MIAPACA-2 = experiment: Cell proliferation by MTS method, MIAPACA-2; assay type: cell-based; conditions: Homo sapiens, MIA PaCa-2, Pancreatic Cancer
Text: as §1, §2

BXPC3 = experiment: Cell proliferation by MTS method, BXPC3; assay type: cell-based; conditions: Homo sapiens, BXPC-3, Pancreatic Cancer
Text: as §1, §2

[4] = system: human pancreatic cancer cells MIAPACA-2; experiment: Subcutaneous tumor-bearing experiment in nude mice, MIAPACA-2
Protocol: (1) Subcutaneous Tumor-Bearing Experiment in Nude Mice
Subcutaneous tumor-bearing experiment, i. e. tumour cells were injected subcutaneously into nude mice, and the tumour cells absorbed nutrients from the mice and rapidly proliferated to form tumours.
Tumour volume and mouse weight were measured every four days, and tumour volume was calculated according to the formula of volume=length×width^2×0.52. After 3 weeks post-administration, mice were sacrificed and subcutaneous tumours were peeled off, weighed and photographed.

[5] = system: human pancreatic cancer cells PANC-1; experiment: Subcutaneous tumor-bearing experiment in nude mice, PANC-1
Protocol: (1-10)×10^6 human pancreatic cancer cells PANC-1 and MIAPACA-2 were injected subcutaneously into the right side of the back of immunodeficient mice (BALB/c-nude, nude mice, 5-6 weeks), and when the tumours grew to about 100 mm^3, the mice were evenly divided into five groups, i. e. blank control group; 5 mg/kg WB737 low-dose group; 10 mg/kg WB737 medium-dose group; 20 mg/kg WB737 high-dose group; 10 mg/kg IACS-010759 positive control group; all the above compounds were formulated with 0.5% MC and administered by gavage. Tumour volume and mouse weight were measured every four days, and tumour volume was calculated according to the formula of volume=length×width^2×0.52. After 3 weeks post-administration, mice were sacrificed and subcutaneous tumours were peeled off, weighed and photographed.

PC-9 = experiment: Cell proliferation by MTS method, PC-9; assay type: cell-based; conditions: Homo sapiens, Lung Cancer
Text: as §1, §2

Capan-2 = experiment: Cell proliferation by MTS method, Capan-2; assay type: cell-based; conditions: Homo sapiens
Outline: as §3

SMMC7721 = experiment: Cell proliferation by MTS method, SMMC7721; assay type: cell-based; conditions: Homo sapiens, SMMC-7721, Liver Cancer
Text: as §1, §2

LNCAP = experiment: Cell proliferation by MTS method, LNCAP; assay type: cell-based; conditions: Homo sapiens, Prostate Cancer
Text: as §1, §2

MGC803 = experiment: Cell proliferation by MTS method, MGC803; assay type: cell-based; conditions: Homo sapiens, MGC-803, gastric Cancer
Text: as §1, §2

H23 = experiment: Cell proliferation by MTS method, H23; assay type: cell-based; conditions: Homo sapiens, NCI-H23, Lung Cancer
Text: as §1, §2

HCT8 = experiment: Cell proliferation by MTS method, HCT8; assay type: cell-based; conditions: Homo sapiens, HCT-8, Colon Cancer
Text: as §1, §2

HT29 = experiment: Cell proliferation by MTS method, HT29; assay type: cell-based; conditions: Homo sapiens, HT-29, Colon Cancer
Text: as §1, §2

Which “mortality of normal mice” value [1] does the source give for Cn1c(C(=O)N2CCN(Cc3ccc(OCC(F)(F)F)cc3)CC2)cc2ccc(Oc3cnc(-c4nc(-c5ccc(C(F)(F)F)cc5)no4)cn3)cc21 [Example 6, (6-((5-(3-(4-(trifluoromethyl)phenyl)-1,2,4-oxadiazol-5-yl)pyrazin-2-yl)oxy)1-methyl-1H-indol-2-yl)(4-(4-(2,2,2-trifluoroethoxy)benzyl)piperazin-1-yl)methanone] here?
Its value is “no mice died”.

What about the IC50 (PLC/PRF-5) of the same compound?
The IC50 was 1.8 nM.

And the Kd (STAT3 SH2 domain)?
The Kd was 2.25 nM.

And the IC50 (BGC823)?
The IC50 was 6.1 ± 0.9 nM.

What about the “concentration that completely inhibits the expression of STAT3-Tyr705 and Ser727” value [2] of the same compound?
Its value is “lower than 50 nM”.

And the IC50 (SK-hep1)?
Its IC50 is 18.6 nM.

What about the IC50 (PANC-1) of the same compound?
The IC50 was 8.1 nM.

And the IC50 (HCT-116)?
The IC50 was 11.3 nM.

What about the IC50 (H1299) of the same compound?
The IC50 was 26 nM.

And the IC50 (MKN45; Table 1, MKN45, read-out: Tumour cell proliferative activity/IC50(nM) gastric Cancer MKN45)?
The IC50 was < 10 nM.

And the IC50 (MKN45; gastric Cancer, MKN45, read-out: IC50)?
Its IC50 is 1.6 nM.

What about the IC50 (SW1990) of the same compound?
Its IC50 is 1.3 nM.

And the IC50 (A549)?
Its IC50 is 11.9 nM.

And the IC50 (H1975)?
The IC50 was 11.7 nM.

And the IC50 [3]?
Its IC50 is 0.5 to 32 nM.

And the IC50 (MIAPACA-2)?
The IC50 was 8.8 nM.

What about the IC50 (BXPC3) of the same compound?
Its IC50 is 7.6 nM.

What about the “effect on the body weight of mice” value ([4]; MIAPACA-2 subcutaneous model, gavage, WB737 5-20 mg/kg, IACS-010759 10 mg/kg, FIG. 3D/5D) of the same compound?
The value was “no significant effect on the body weight of mice; also recorded: good tolerability”.

And the “tumor growth (tumor volume and tumor weight)” value ([4]; MIAPACA-2 subcutaneous, BALB/c-nude mice, 5, 10, 20 mg/kg by gavage, 3 weeks, FIG. 3)?
The value was “significantly inhibits the growth of pancreatic tumour”.

What about the “effect on the body weight of mice” value ([5]; PANC-1 subcutaneous model, gavage, WB737 5-20 mg/kg, IACS-010759 10 mg/kg, FIG. 2D/5C) of the same compound?
The value was “no significant effect on the body weight of mice; also recorded: good tolerability”.

What about the “tumor growth (tumor volume and tumor weight)” value ([5]; PANC-1 subcutaneous, BALB/c-nude mice, 5, 10, 20 mg/kg by gavage, 3 weeks, FIG. 2) of the same compound?
The value was “significantly inhibits the growth of pancreatic tumour”.

What about the “phosphorylation of STAT3^Y705/S727 bifunctional phosphorylation site in tumour tissue (WB and IHC)” value ([5]; PANC-1 tumour tissues, FIG. 2E and 2F) of the same compound?
The value was “dose-dependently inhibits phosphorylation”.

And the IC50 (PC-9)?
The IC50 was 21.3 nM.

What about the IC50 (Capan-2; Pancreatic Cancer, Capan-2, read-out: IC50) of the same compound?
The IC50 was 9.4 nM.

What about the IC50 (Capan-2; Table 1, Capan-2, read-out: Tumour cell proliferative activity/IC50(nM) Pancreatic Cancer Capan-2) of the same compound?
The IC50 was < 10 nM.

And the IC50 (SMMC7721)?
The IC50 was 6.4 nM.

And the IC50 (LNCAP)?
Its IC50 is 10.3 nM.

What about the IC50 (MGC803) of the same compound?
The IC50 was 3.6 nM.

And the IC50 (H23)?
Its IC50 is 2.9 nM.

And the IC50 (HCT8)?
Its IC50 is 20.9 nM.

And the IC50 (HT29)?
Its IC50 is 31.6 nM.
